Active and inactive are the calls of the source. No cut-off for these calls is given here.
System: not listed separately
Experiment: Cytotoxicity against mouse RAW264.7 cells assessed as cell survival rate at 100 uM incubated for 24 hrs by MTT assay
Assay type: toxicity, cell-based
Details: read-out: Activity

Row | SMILES | viability at 24 h, 100 µM [%]
1 | COc1ccc([C@H]2C(=O)N(S(=O)(=O)c3ccc(C)cc3)N3C=Cc4c(Br)cccc4[C@H]23)cc1 | 91.7
2 | Cc1ccc(S(=O)(=O)N2C(=O)[C@H](c3ccccc3F)[C@H]3c4cccc(Br)c4C=CN32)cc1 | 87.7
3 | Cc1ccc(S(=O)(=O)N2C(=O)[C@H](c3ccc(Br)cc3)[C@H]3c4cccc(Br)c4C=CN32)cc1 | 92.9
4 | Cc1ccc(S(=O)(=O)N2C(=O)[C@H](c3ccc(F)cc3)[C@H]3c4ccccc4C=CN32)cc1 | 91.7
5 | Cc1ccc(S(=O)(=O)N2C(=O)[C@H](c3cccc(Br)c3)[C@H]3c4cccc(Br)c4C=CN32)cc1 | 81.7
6 | Cc1ccc(S(=O)(=O)N2C(=O)[C@H](c3ccccc3)[C@H]3c4cccc(Br)c4C=CN32)cc1 | 92.3
7 | COc1ccc([C@H]2C(=O)N(S(=O)(=O)c3ccc(C)cc3)N3C=Cc4ccccc4[C@H]23)cc1 | 87

System: RAW264.7
Experiment: Cytotoxicity against mouse RAW264.7 cells assessed as reduction in cell viability at 1 to 40 uM incubated for 24 hrs by MTT assay
Assay type: toxicity, cell-based
Details: raw264.7, 24 h, dose 1-40 µM

Row | SMILES | Activity [%]
8 | Cc1ccc(S(=O)(=O)N2C(=O)[C@H](c3ccccc3F)[C@H]3c4cccc(Br)c4C=CN32)cc1 | 90
9 | Cc1ccc(S(=O)(=O)N2C(=O)[C@H](c3ccc(Br)cc3)[C@H]3c4cccc(Br)c4C=CN32)cc1 | 90
10 | Cc1ccc(S(=O)(=O)N2C(=O)[C@H](c3ccccc3)[C@H]3c4cccc(Br)c4C=CN32)cc1 | 90

System: RAW264.7
Experiment: Anti inflammatory activity in LPS-induced mouse RAW264.7 cells assessed as inhibition of NO production preincubated with LPS for 4 hrs followed by compound addition and measured after 18 hrs by griess reagent based assay
Assay type: functional, cell-based
Details: not given

Row | SMILES | IC50 [µM]
11 | COc1ccc([C@H]2C(=O)N(S(=O)(=O)c3ccc(C)cc3)N3C=Cc4c(Br)cccc4[C@H]23)cc1 | 26.7
12 | Cc1ccc(S(=O)(=O)N2C(=O)[C@H](c3ccc(Br)cc3)[C@H]3c4cccc(Br)c4C=CN32)cc1 | 20.8
13 | Cc1ccc(S(=O)(=O)N2C(=O)[C@H](c3cccc(F)c3)[C@H]3c4cccc(Br)c4C=CN32)cc1 | 33.8
14 | Cc1ccc(S(=O)(=O)N2C(=O)[C@H](c3ccccc3)[C@H]3c4cccc(Br)c4C=CN32)cc1 | 47.8
15 | COc1ccc([C@H]2C(=O)N(S(=O)(=O)c3ccc(C)cc3)N3C=Cc4ccccc4[C@H]23)cc1 | 47.8

Same assay, conditions: dose 5-80 µM

Row | SMILES | Activity
16 | COc1ccc([C@H]2C(=O)N(S(=O)(=O)c3ccc(C)cc3)N3C=Cc4c(Br)cccc4[C@H]23)cc1 | Dose-Dependent Effect
17 | Cc1ccc(S(=O)(=O)N2C(=O)[C@H](c3ccccc3F)[C@H]3c4cccc(Br)c4C=CN32)cc1 | Dose-Dependent Effect
18 | Cc1ccc(S(=O)(=O)N2C(=O)[C@H](c3ccc(Br)cc3)[C@H]3c4cccc(Br)c4C=CN32)cc1 | Dose-Dependent Effect
19 | Cc1ccc(S(=O)(=O)N2C(=O)[C@H](c3ccc(F)cc3)[C@H]3c4ccccc4C=CN32)cc1 | Dose-Dependent Effect
20 | Cc1ccc(S(=O)(=O)N2C(=O)[C@H](c3cccc(F)c3)[C@H]3c4cccc(Br)c4C=CN32)cc1 | Dose-Dependent Effect
21 | Cc1ccc(S(=O)(=O)N2C(=O)[C@H](c3cccc(Br)c3)[C@H]3c4cccc(Br)c4C=CN32)cc1 | Dose-Dependent Effect
22 | Cc1ccc(S(=O)(=O)N2C(=O)[C@H](c3ccccc3)[C@H]3c4cccc(Br)c4C=CN32)cc1 | Dose-Dependent Effect
23 | COc1ccc([C@H]2C(=O)N(S(=O)(=O)c3ccc(C)cc3)N3C=Cc4ccccc4[C@H]23)cc1 | Dose-Dependent Effect

System: RAW264.7
Experiment: Anti inflammatory activity in LPS-induced mouse RAW264.7 cells assessed as inhibition of NO production at 80 uM preincubated with LPS for 4 hrs followed by compound addition and measured after 18 hrs by griess reagent based assay
Assay type: functional
Set-up: scale not given: the % may be the effect or the level left
Details: not given

Row | SMILES | Activity [%]
24 | COc1ccc([C@H]2C(=O)N(S(=O)(=O)c3ccc(C)cc3)N3C=Cc4c(Br)cccc4[C@H]23)cc1 | 84.9
25 | Cc1ccc(S(=O)(=O)N2C(=O)[C@H](c3ccccc3F)[C@H]3c4cccc(Br)c4C=CN32)cc1 | 92.84
26 | Cc1ccc(S(=O)(=O)N2C(=O)[C@H](c3ccc(Br)cc3)[C@H]3c4cccc(Br)c4C=CN32)cc1 | 91.61
27 | Cc1ccc(S(=O)(=O)N2C(=O)[C@H](c3ccc(F)cc3)[C@H]3c4ccccc4C=CN32)cc1 | 73.46
28 | Cc1ccc(S(=O)(=O)N2C(=O)[C@H](c3cccc(Br)c3)[C@H]3c4cccc(Br)c4C=CN32)cc1 | 72.86
29 | Cc1ccc(S(=O)(=O)N2C(=O)[C@H](c3ccccc3)[C@H]3c4cccc(Br)c4C=CN32)cc1 | 90.52
30 | COc1ccc([C@H]2C(=O)N(S(=O)(=O)c3ccc(C)cc3)N3C=Cc4ccccc4[C@H]23)cc1 | 77.09

System: RAW264.7
Experiment: Anti inflammatory activity in LPS-induced mouse RAW264.7 cells assessed as reduction in iNOS expression at 5 to 80 uM measured for 24 hrs by Western blot analysis
Assay type: functional, cell-based
Details: dose 5-80 µM

Row | SMILES | Activity
31 | Cc1ccc(S(=O)(=O)N2C(=O)[C@H](c3ccc(Br)cc3)[C@H]3c4cccc(Br)c4C=CN32)cc1 | Active

System: Mus musculus
Experiment: Antiinflammatory activity against xylene-induced ear edema mouse model assessed as swelling rate at 10 mg/kg, iv measured after 30 mins
Assay type: functional
Details: 0.5 h

Row | SMILES | Activity [%]
32 | Cc1ccc(S(=O)(=O)N2C(=O)[C@H](c3ccc(F)cc3)[C@H]3c4ccccc4C=CN32)cc1 | 64.4
33 | Cc1ccc(-c2cc(C(F)(F)F)nn2-c2ccc(S(N)(=O)=O)cc2)cc1 [CELECOXIB] | 70.05

— ChEMBL document CHEMBL5370522, “Anti-inflammatory efficacy and relevant SAR investigations of novel chiral pyrazolo isoquinoline derivatives: Design, synthesis, in-vitro, in-vivo, and computational studies targeting iNOS” (Eur J Med Chem, 2023)
